The values below come from patent publication US8119614B2, “Substitution derivatives of N6-benzyladenosine, methods of their preparation, their use for preparation of drugs, cosmetic preparations and growth regulators, pharmaceutical preparations, cosmetic preparations and growth regulators containing these compounds” (Ustav Experimentalni Botaniky Akademie Ved Ceske Republiky, priority 2002, dated 2012).

SMILES strings stand for the structures.

Assay [1] has as its system tobacco callus Nicotiana tabacum L. cv. Wisconsin 38. Kind of assay: Growth of cytokinin-dependent tobacco callus. The format is cell-based. The following applies: for Activity (%) [10^−5 mol · l^−1 BAP = 100%]: callus growth, at concentration with highest activity; for Concentration with highest activity: fresh callus weight after four weeks.
The subject of assay [2] is Human lymphocytes. Nature of the assay: Immunosuppressive activity: concanavalin A induced lymphocyte proliferation, [^3H]-TdR incorporation. It is filed as cell-based. As to conditions: 72 hours, read-out: Human lymphocytes ED50. The method, then:
Human heparinized peripheral blood was obtained from healthy volunteers by cubital vein punction. The blood was diluted in PBS (1:3) and mononuclear cells were separated by centrifugation in Ficoll-Hypaque density gradient (Pharmacia, 1.077 g/ml) at 2200 rpm for 30 minutes. Following centrifugation, lymphocytes were washed in PBS and resuspended in cell culture medium (RMPI 1640, 2 mM glutamine, 100 U/ml penicillin, 100 μg/ml streptomycin, 10% fetal calf serum and sodium bicarbonate).
The cells were diluted at target density of 1,100,000 cells/ml were added by pipette (180 μl) into 96/well microtiter plates. Four-fold dilutions of the intended test concentration were added at time zero in 20 μl aliquots to the microtiter plate wells. Usually, test compound was evaluated at six 4-fold dilutions. In routine testing, the highest well concentration was 266.7 μM. All drug concentrations were examined in duplicates. All wells with exception of unstimulated controls were activated with 50 μl of concanavalin A (25 μg/ml). Incubations of cells with test compounds lasted for 72 hours at 37° C., in 5% CO2 atmosphere and 100% humidity. At the end of incubation period, the cells were assayed by using the [^3H]-TdR:
Cell cultures were incubated with 0.5 μCi (20 μl of stock solution 500 μCi/ml) per well for 6 hours at 37° C. and 5% CO2. The automated cell harvester was used to lyse cells in water and adsorb the DNA onto glass-fiber filters in the format of microtiter plate. The DNA incorporated [^3H]-TdR was retained on the filter while unincorporated material passes through. The filters were dried at room temperature overnight, sealed into a sample bag with 10-12 ml of scintillant. The amount of [^3H]-TdR present in each filter (in cpm) was determined by scintillation counting in a Betaplate liquid scintillation counter. The effective dose of immunosuppressant (ED) was calculated using the following equation: ED=(CCPMdrug exposed well/mean CCPMcontrol wells)×100%. The ED50 value, the drug concentration inhibiting proliferation of 50% of lymphocytes, was calculated from the obtained dose response curves.

Assay [3] concerns human diploid fibroblasts (HCA cells). Kind of assay: Inhibition of senescence of mammal cells: β-galactosidase staining of senescent cells. The format is cell-based. As to conditions: for Senescent cells (%) HCA25: passage 25; for Senescent cells (%) HCA45: passage 45; for Senescent cells (%) HCA80: passage 80. The method, then:
In this example, human diploid fibroblasts (HCA cells with different levels of passage: passage 25—labelling HCA25; passage 45—labelling HCA45; passage 80—labelling HCA80) were used for studying β-galactosidase activity. Medium used for cells cultivation was removed, cells were washed twice with PBS and fixed in 2-3 ml of fixation agent consisting of 2% of formaldehyde and 0.2% of flutaraldehyde in PBS. Cells were incubated at room temperature for 5 min and subsequently washed twice with PBS. Cells were then incubated at 37° C. (without CO2) for 1 to 16 hours in 2-3 ml of solution comprising potassium ferricyanide (5 mM), potassium ferrocyanide (5 mM), MgCl2 (2 mM), X-gal (5-bromo-4-chloro-3-indolyl-β-D-galactopyranoside) (1 mg/ml) in citrate/phosphate buffer, pH 6.0. […] In this experiment only senescent cells were labelled due to the effect of β-galactosidase on the substrate.

Assay [4] relates to glutamate kinase. Kind of assay: Field studies: glutamate kinase activity in spring wheat. It is filed as in vivo. On the set-up: tested at 1 µM (10^-6 M spray solution). The following applies: 6 days after the application, Control = 100.0. The procedure: Height of plants, leaf area, dry matter, development of vegetation opex—bases of future spike, and number of spikelets were monitored after germination in 14 day intervals, […]. From these primary data, values used in production physiology are derived, as leaf area index LAI, photosynthetic capacity LAD, tillering potential. Experiments with treatment of spring wheat crop (variety Sandra) are carried out on the field (area 10 m^2, four replicates) by spraying 1 litr of 10^−6 molar solution of tested compound (cytokinin) at the transition period from jointing stage to athesis stage (49 DC).
Glutamate kinase activity was determined 6 days after the application. This enzyme was selected because of good corelation of its activity changes and state of transport of endogenous substances (nutrients from roots, assimilates to cariopsis), respiration, energy (adenosintriphosphate) transfer, storage of nutrients, growth and developmental proceses, and also metabolism of proline, which is known from literature to play an important role in adaptation against stress (unsuitable stand, drought, hypersalinity, coldness) and also in regulation of both theoretical and real production (restriction of seed number reduction per spikelet). Enzyme glutamate kinase catalyses to glutamate conversion into γ glutamylphosphate, which is first step of proline biosynthesis from glutamate. Therefore, this enzyme is, as essential precursor of other plant metabolic pathways, marker of stress inhibition. It can be determined spectrofotometrically (Vasáková, 1980). For analysis, acetone powder is prepared from a sample by standard method, subsequently extracted by 0.05M potassium-phosphate buffer pH=7.2 and centrifugated. Glutamate kinase fraction is precipitated using crystalline ammonium sulfate and after dialysis, glutamate kinase activity is determined spectrophotometrically. Proline accumulation increased by stress corresponds as a “feedback” to glutamate kinase inhibition.

Consider `Cc1cccc(CNc2ncnc3c2ncn3[C@@H]2O[C@H](CO)[C@@H](O)[C@H]2O)c1` [3-methylbenzylamino, 6-(3-methylbenzylamino)purine riboside], for which, in assay [1], the “Activity (%) [10^−5 mol · l^−1 BAP = 100%]” value (from here on “Activity (%)”) was 90 ± 2% and the “Concentration with highest activity” value is 10^−6 mol · l^−1. Further, in assay [2], the EC50 is 6.5 µM.
Regarding `OC[C@H]1O[C@@H](n2cnc3c(NCc4cccc(F)c4)ncnc32)[C@H](O)[C@@H]1O` [3-fluorobenzylamino, 6-(3-fluorobenzylamino)purine riboside], in assay [1], the “Activity (%)” value stood at 91 ± 6% and the “Concentration with highest activity” value is recorded as 10^−5 mol · l^−1. For the same compound, in assay [3], the “Senescent cells (%) HCA25” value was 3%, the “Senescent cells (%) HCA45” value was found to be 5% and the “Senescent cells (%) HCA80” value turned out to be 13%. For the same compound, the EC50 in assay [2] was 7.1 µM.
Consider `COc1cccc(CNc2ncnc3c2ncn3[C@@H]2O[C@H](CO)[C@@H](O)[C@H]2O)c1` [3-methoxybenzylamino, 6-(3-methoxybenzylamino)purine riboside], for which, in assay [1], the “Activity (%)” value worked out at 92 ± 1% and the “Concentration with highest activity” value was 10^−6 mol · l^−1. Moreover, in assay [3], the “Senescent cells (%) HCA25” value amounted to 5%, the “Senescent cells (%) HCA45” value was 6% and the “Senescent cells (%) HCA80” value is recorded as 12%.
Regarding `OC[C@H]1O[C@@H](n2cnc3c(NCc4ccccc4F)ncnc32)[C@H](O)[C@@H]1O` [2-fluorobenzylamino, 6-(2-fluorobenzylamino)purine riboside], in assay [1], the “Activity (%)” value was 100 ± 9% and the “Concentration with highest activity” value was 10^−6 mol · l^−1. Also, in assay [3], the “Senescent cells (%) HCA25” value is reported as 4%, the “Senescent cells (%) HCA45” value stood at 4% and the “Senescent cells (%) HCA80” value was determined as 15%. Besides, in assay [2], the EC50 worked out at 5.6 µM.
In the case of `OC[C@H]1O[C@@H](n2cnc3c(NCc4cccc(Br)c4)ncnc32)[C@H](O)[C@@H]1O` [3-bromobenzylamino, 6-(3-bromobenzylamino)purine riboside], in assay [1], the “Activity (%)” value was 82 ± 11% and the “Concentration with highest activity” value is recorded as 10^−6 mol · l^−1. Further, in assay [4], the “GK % (glutamate kinase activity)” value is recorded as 116.6%.
Regarding `OC[C@H]1O[C@@H](n2cnc3c(NCc4ccc(Cl)cc4)ncnc32)[C@H](O)[C@@H]1O` [4-chlorobenzylamino, 6-(4-chlorobenzylamino)purine riboside], in assay [1], the “Activity (%)” value is reported as 46 ± 14% and the “Concentration with highest activity” value is 10^−6 mol · l^−1. Moreover, in assay [2], the EC50 stood at 3.9 µM.
`COc1cccc(CNc2ncnc3c2ncn3[C@@H]2O[C@H](CO)[C@@H](O)[C@H]2O)c1O` [2-hydroxy-3-methoxybenzylamino, 6-(2-hydroxy-3-methoxybenzylamino)purine riboside]: the EC50 in assay [2] was determined as 1.4 µM.
With `Cc1ccccc1CNc1ncnc2c1ncn2[C@@H]1O[C@H](CO)[C@@H](O)[C@H]1O` [2-methylbenzylamino, 6-(2-methylbenzylamino)purine riboside], in assay [1], the “Activity (%)” value amounted to 98 ± 4% and the “Concentration with highest activity” value is on record as 10^−6 mol · l^−1. In assay [2], the EC50 amounted to 5.8 µM.
Turning to `COc1ccccc1CNc1ncnc2c1ncn2[C@@H]1O[C@H](CO)[C@@H](O)[C@H]1O` [2-methoxybenzylamino, 6-(2-methoxybenzylamino)purine riboside], in assay [1], the “Activity (%)” value stood at 108 ± 1% and the “Concentration with highest activity” value is 10^−5 mol · l^−1. Moreover, in assay [3], the “Senescent cells (%) HCA25” value is 4%, the “Senescent cells (%) HCA45” value turned out to be 4% and the “Senescent cells (%) HCA80” value worked out at 16%.
Turning to `OC[C@H]1O[C@@H](n2cnc3c(NCc4cccc(Cl)c4)ncnc32)[C@H](O)[C@@H]1O` [3-chlorobenzylamino, 6-(3-chlorobenzylamino)purine riboside], in assay [1], the “Activity (%)” value was 96 ± 5% and the “Concentration with highest activity” value is 10^−5 mol · l^−1. Moreover, the “GK % (glutamate kinase activity)” value in assay [4] turned out to be 124.7%. In assay [2], the EC50 came out at 2.5 µM.
For `OC[C@H]1O[C@@H](n2cnc3c(NCc4ccccc4Cl)ncnc32)[C@H](O)[C@@H]1O` [2-chlorobenzylamino, 6-(2-chlorobenzylamino)purine riboside], in assay [1], the “Activity (%)” value amounted to 93 ± 4% and the “Concentration with highest activity” value is 10^−6 mol · l^−1. The EC50 in assay [2] worked out at 8.4 µM.
Consider `OC[C@H]1O[C@@H](n2cnc3c(NCc4ccc(Cl)c(Cl)c4)ncnc32)[C@H](O)[C@@H]1O` [3,4-dichlorobenzylamino, 6-(3,4-dichlorobenzylamino)purine riboside], for which the “GK % (glutamate kinase activity)” value in assay [4] is listed as 114.2%.
With `OC[C@H]1O[C@@H](n2cnc3c(NCc4ccc(F)cc4)ncnc32)[C@H](O)[C@@H]1O` [4-fluorobenzylamino, 6-(4-fluorobenzylamino)purine riboside], in assay [1], the “Activity (%)” value is listed as 100 ± 6% and the “Concentration with highest activity” value is 10^−6 mol · l^−1. Also, the EC50 in assay [2] turned out to be 9.4 µM.
